Source: patent publication US20120309744A1, “DOSING REGIMENS AND METHODS FOR TREATING OR PREVENTING HEPATOCELLULAR CARCINOMA” (NBI Pharmaceuticals, Inc., priority 2011, published 2012)

Experiments:
[1] = system: MMP-3 promoter; test: MMP promoter/luciferase reporter assay in transfected HCC cells; assay type: cell-based; details: HepG2 cells, luciferase reporter
Excerpt: To investigate the mechanism of suppression of MMP-1, -3 and -7 expression by MK4, HCC cells will be transiently transfected with MMP-1, -3 and -7 promoter/luciferase reporter plasmids and then treated with MK4.

[2] = system: MMP-1; test: Suppression of TPA-induced MMP expression; assay type: cell-based
Excerpt: (§1) Since MK4 inhibits MMP-1, -3 and -7 mRNA expression, the ability of MK4 to suppress TPA-induced MMP expression will be investigated. […] MK4 also suppresses the MMP-1 and -3 protein expression induced by TPA.

[3] = system: MMP-3; test: Suppression of TPA-induced MMP expression; assay type: cell-based
Excerpt: as §1

[4] = system: MMP-7; test: Suppression of TPA-induced MMP expression; assay type: cell-based
Excerpt: as §1

[5] = system: hepatocellular carcinoma; test: Subject with hepatocellular carcinoma given oral MK4 (induction then maintenance); assay type: in vivo, human
Experimental: A subject suffering from hepatocellular carcinoma is administered oral MK4 (90 mg daily once a day). After the administration of MK4 for six weeks, tumor sizes will decrease and the diameter of the main tumor is smaller. […] This case report provides compelling evidence that MK4 may be useful in the treatment of HCC.

[6] = system: dysplastic nodule or early HCC; test: Subject with HCV-related liver cirrhosis and dysplastic nodule or early HCC given MK4 and an ACE-I; assay type: in vivo, human
Excerpt: Treatment with MK4 and an ACE-I normalizes AFP and AFP-L3 tumor markers and the hepatic nodule disappears. A subject with hepatitis C virus (HCV)-related liver cirrhosis is diagnosed with what was termed a “dysplastic nodule or early HCC.” The diagnosis is based on enhanced computed tomography (CE-CT) study and elevations of the tumor markers alpha-fetoprotein (AFP) and lectin-reactive alpha-fetal protein (AFP-L3).

[7] = system: hepatocellular carcinoma; test: Randomized study of oral MK4 versus no MK4 in patients with hepatocellular carcinoma; assay type: in vivo, human
Experimental: Patients with hepatocellular carcinoma are randomized to receive oral MK4 (90 mg/day) or no MK4. All patients receive conventional therapy with percutaneous tumor ablation and/or transcatheter arterial embolization. The rate of portal vein invasion at 12 months of follow-up will be reduced in MK4 recipients as compared with controls.

[8] = after six weeks at 90 mg, additional twenty-two months at 45 mg daily once a day
[9] = after one-year combined treatment, MK-4 45 mg daily for additional 48 months, ACE-I halted
[10] = oral MK4 90 mg daily with ACE-I (e.g., perindopril; 4 mg/day)
[11] = after 12 months at 90 mg/day, additional twenty-two months at 45 mg daily once a day

**Q.** Which results are given for `CC(C)=CCC/C(C)=C/CC/C(C)=C/CC/C(C)=C/CC1=C(C)C(=O)c2ccccc2C1=O` [MK4, menatetrenone]?
**A.** MMP-3 promoter activity [1]: decrease MMP-3 promoter activity weakly; MMP-1 mRNA expression induced by TPA [2]: dose-dependently inhibits; MMP-1 promoter activity induced by TPA [2]: dose-dependently suppresses; MMP-1 protein expression induced by TPA [2]: suppresses; MMP-3 mRNA expression induced by TPA [3]: dose-dependently inhibits; MMP-3 promoter activity induced by TPA [3]: dose-dependently suppresses; MMP-3 protein expression induced by TPA [3]: suppresses; MMP-7 mRNA expression induced by TPA [4]: dose-dependently inhibits; MMP-7 promoter activity induced by TPA [4]: dose-dependently suppresses; recurrence [5, 8]: no signs of recurrence are observed; tumor markers [5, 8]: remain within the normal limits; diameter of the main tumor ([5]; oral 90 mg daily once a day for six weeks): smaller; serum level of AFP [6, 9]: remain in the normal range; serum level of AFP-L3 [6, 9]: remain in the normal range; serum level of AFP [6, 10]: gradually decrease; serum level of AFP-L3 [6, 10]: gradually decrease; rate of portal vein invasion ([7]; 12 months of follow-up, oral MK4 90 mg/day plus conventional therapy, versus controls): reduced; recurrence [7, 11]: no signs of recurrence are observed; tumor markers [7, 11]: remain within the normal limits
